Experimental data taken from patent publication US11442072B2, “Method for measuring LDL aggregation” (Jenny and Antti Wihuri Foundation, priority 2018, dated 2022).

B1: bcSMase: SMase from Bacillus cereus (Sigma-Aldrich) (protein, UniProt P09599 28-333, looked up)
Sphingomyelinase C: DTSTDQNNTLKVMTHNVYMLSTNLYPNWGQSQRADLIGAADYIKNQDVVILNEVFDNSASDRLLGNLKKEYPNQTAVLGRSNGNEWDKTLGSYSSSTPEDGGVAIVSKWPIVEKIQYVFAKGCGPDNLSNKGFVYTKIKKNDRFVHVIGTHLQAEDSMCGKTSPASVRTNQLKEIQDFIKNKNIPNDEYVLFGGDMNVNKINAENNSDSEYASMFKTLHASIPSYTGHTATWDATTNSIAKYNFPDSPAEYLDYIIASKDHANPSFIENKVLQPKSPQWTVTSWLKKYTYDDYSDHYPVAATISMK

Tests used:
LDL particles = target: T1, LDL particles (Homo sapiens, UniProt P04114); experiment: Ex vivo enrichment of LDL with phospholipid vesicles, then hrSMase-induced aggregation (DLS); type: biochemical; conditions: LDL from four healthy volunteers, enriched with 1 mM phospholipid vesicles
T1 construct: from tissue; host or cells: human blood plasma (LDL fraction d=1.019-1.063 g/ml, ultracentrifugation)
Procedure: In the standard assay, LDL isolated from human plasma was extensively dialyzed against 20 mM MES buffer, pH 5.5, containing 150 mM NaCl and 50 μM ZnCl2 and its apoB-100 concentration was determined by ELISA (Mabtech). The sample was diluted with the same buffer to give a final concentration of 0.2 mg of apoB-100/ml and 75 μg/ml of hrSMase was added to LDL. The size of LDL was determined immediately and once every hour for up to 6-hours. An aliquot was taken at the same time points for phosphorylcholine measurement. The degree of SM hydrolysis was determined by measuring the amount of phosphorylcholine from the samples with Amplex Red reagent (Invitrogen).
To exchange LDL surface phospholipids, LDL (2 mg/ml) was incubated with phospholipid vesicles (1 mM phosphatidylcholine 18:1/16:0 (1-palmityl-2-oleyl-sn-glycero-3-phosphocholine), lysophosphatidylcholine 16:0 (1-Palmitoyl-2-Hydroxy-sn-Glycero-3-Phosphocoline) or sphingomyelin 16:0 (N-Palmitoyl-D-erythro-sphingosylphosphorylcholine) each from Avanti Polar Lipids) overnight at 37° C. in buffer A (5 mM Tris, 150 mM NaCl, 1 mM EDTA, pH 7.4). The vesicles had been prepared by sonicating 10 mM lipid solutions using a Branson Sonifier 250 sonicator (6 times for 5 minutes) in buffer A. Vesicles were removed with sequential ultracentrifugation (d<1.019 g/ml KBr) repeated twice. […]

apoB-100 = target: T2, apoB-100 (Homo sapiens, UniProt P04114); experiment: Circular dichroism of phospholipid-enriched LDL after SMase treatment; type: biochemical; conditions: lipid-enriched LDL, SMase 30 min
T2 construct: from tissue; host or cells: human blood plasma (LDL fraction d=1.019-1.063 g/ml, ultracentrifugation)
Procedure: Samples of control and SM-, PC- and LPC-enriched LDL particles (1 mg/ml) were treated with SMase for 30-min and lipolysis was stopped by 10 mM EDTA. The LDL particles (50 μg/ml) were analyzed by CD as described previously (11,12).

LDL = LDL aggregation induced by oxidation, proteolysis or lipolysis, followed by DLS; type: biochemical, human; conditions: LDL 0.5 mg/ml from four donors; hrSMase at pH 5.5, other agents at pH 7.4
Procedure: Firstly, inter-individual variability in LDL aggregation using agents that have been reported to cause LDL aggregation was tested. LDL aggregation was induced at LDL concentration of 0.5 mg/ml by oxidation (incubation with 5 μM CuSO4), by proteolysis (incubation with 0.1 mg/ml α-chymotrypsin from bovine pancreas (Sigma-Aldrich)), or by lipolysis (incubation with 50 mU/ml phospholipase A2 (PLA2) from bee venom (Sigma-Aldrich)), with 200 mU/ml SMase from Bacillus cereus (bcSMase, Sigma-Aldrich)), or with 75 μg/ml hrSMase (a kind gift from Genzyme or produced in house). The incubation buffer was 20 mM Tris-HCl, pH 7.4, containing 150 mM NaCl and 2 mM CaCl2 and 2 mM MgCl2, except in the case of hrSMase, where the incubation buffer was 20 mM MES, pH 5.5, containing 150 mM NaCl and 50 μM ZnCl2. LDL size was determined at the beginning of the incubation and aggregate size was determined at the indicated time points by dynamic light scattering (DLS) (Zetasizer Nano, Malvern Instruments, Malvern Works, UK or Wyatt DynaPro Plate Reader 11, Wyatt Technology, California, USA).

T1 sequence (P04114 28-4563): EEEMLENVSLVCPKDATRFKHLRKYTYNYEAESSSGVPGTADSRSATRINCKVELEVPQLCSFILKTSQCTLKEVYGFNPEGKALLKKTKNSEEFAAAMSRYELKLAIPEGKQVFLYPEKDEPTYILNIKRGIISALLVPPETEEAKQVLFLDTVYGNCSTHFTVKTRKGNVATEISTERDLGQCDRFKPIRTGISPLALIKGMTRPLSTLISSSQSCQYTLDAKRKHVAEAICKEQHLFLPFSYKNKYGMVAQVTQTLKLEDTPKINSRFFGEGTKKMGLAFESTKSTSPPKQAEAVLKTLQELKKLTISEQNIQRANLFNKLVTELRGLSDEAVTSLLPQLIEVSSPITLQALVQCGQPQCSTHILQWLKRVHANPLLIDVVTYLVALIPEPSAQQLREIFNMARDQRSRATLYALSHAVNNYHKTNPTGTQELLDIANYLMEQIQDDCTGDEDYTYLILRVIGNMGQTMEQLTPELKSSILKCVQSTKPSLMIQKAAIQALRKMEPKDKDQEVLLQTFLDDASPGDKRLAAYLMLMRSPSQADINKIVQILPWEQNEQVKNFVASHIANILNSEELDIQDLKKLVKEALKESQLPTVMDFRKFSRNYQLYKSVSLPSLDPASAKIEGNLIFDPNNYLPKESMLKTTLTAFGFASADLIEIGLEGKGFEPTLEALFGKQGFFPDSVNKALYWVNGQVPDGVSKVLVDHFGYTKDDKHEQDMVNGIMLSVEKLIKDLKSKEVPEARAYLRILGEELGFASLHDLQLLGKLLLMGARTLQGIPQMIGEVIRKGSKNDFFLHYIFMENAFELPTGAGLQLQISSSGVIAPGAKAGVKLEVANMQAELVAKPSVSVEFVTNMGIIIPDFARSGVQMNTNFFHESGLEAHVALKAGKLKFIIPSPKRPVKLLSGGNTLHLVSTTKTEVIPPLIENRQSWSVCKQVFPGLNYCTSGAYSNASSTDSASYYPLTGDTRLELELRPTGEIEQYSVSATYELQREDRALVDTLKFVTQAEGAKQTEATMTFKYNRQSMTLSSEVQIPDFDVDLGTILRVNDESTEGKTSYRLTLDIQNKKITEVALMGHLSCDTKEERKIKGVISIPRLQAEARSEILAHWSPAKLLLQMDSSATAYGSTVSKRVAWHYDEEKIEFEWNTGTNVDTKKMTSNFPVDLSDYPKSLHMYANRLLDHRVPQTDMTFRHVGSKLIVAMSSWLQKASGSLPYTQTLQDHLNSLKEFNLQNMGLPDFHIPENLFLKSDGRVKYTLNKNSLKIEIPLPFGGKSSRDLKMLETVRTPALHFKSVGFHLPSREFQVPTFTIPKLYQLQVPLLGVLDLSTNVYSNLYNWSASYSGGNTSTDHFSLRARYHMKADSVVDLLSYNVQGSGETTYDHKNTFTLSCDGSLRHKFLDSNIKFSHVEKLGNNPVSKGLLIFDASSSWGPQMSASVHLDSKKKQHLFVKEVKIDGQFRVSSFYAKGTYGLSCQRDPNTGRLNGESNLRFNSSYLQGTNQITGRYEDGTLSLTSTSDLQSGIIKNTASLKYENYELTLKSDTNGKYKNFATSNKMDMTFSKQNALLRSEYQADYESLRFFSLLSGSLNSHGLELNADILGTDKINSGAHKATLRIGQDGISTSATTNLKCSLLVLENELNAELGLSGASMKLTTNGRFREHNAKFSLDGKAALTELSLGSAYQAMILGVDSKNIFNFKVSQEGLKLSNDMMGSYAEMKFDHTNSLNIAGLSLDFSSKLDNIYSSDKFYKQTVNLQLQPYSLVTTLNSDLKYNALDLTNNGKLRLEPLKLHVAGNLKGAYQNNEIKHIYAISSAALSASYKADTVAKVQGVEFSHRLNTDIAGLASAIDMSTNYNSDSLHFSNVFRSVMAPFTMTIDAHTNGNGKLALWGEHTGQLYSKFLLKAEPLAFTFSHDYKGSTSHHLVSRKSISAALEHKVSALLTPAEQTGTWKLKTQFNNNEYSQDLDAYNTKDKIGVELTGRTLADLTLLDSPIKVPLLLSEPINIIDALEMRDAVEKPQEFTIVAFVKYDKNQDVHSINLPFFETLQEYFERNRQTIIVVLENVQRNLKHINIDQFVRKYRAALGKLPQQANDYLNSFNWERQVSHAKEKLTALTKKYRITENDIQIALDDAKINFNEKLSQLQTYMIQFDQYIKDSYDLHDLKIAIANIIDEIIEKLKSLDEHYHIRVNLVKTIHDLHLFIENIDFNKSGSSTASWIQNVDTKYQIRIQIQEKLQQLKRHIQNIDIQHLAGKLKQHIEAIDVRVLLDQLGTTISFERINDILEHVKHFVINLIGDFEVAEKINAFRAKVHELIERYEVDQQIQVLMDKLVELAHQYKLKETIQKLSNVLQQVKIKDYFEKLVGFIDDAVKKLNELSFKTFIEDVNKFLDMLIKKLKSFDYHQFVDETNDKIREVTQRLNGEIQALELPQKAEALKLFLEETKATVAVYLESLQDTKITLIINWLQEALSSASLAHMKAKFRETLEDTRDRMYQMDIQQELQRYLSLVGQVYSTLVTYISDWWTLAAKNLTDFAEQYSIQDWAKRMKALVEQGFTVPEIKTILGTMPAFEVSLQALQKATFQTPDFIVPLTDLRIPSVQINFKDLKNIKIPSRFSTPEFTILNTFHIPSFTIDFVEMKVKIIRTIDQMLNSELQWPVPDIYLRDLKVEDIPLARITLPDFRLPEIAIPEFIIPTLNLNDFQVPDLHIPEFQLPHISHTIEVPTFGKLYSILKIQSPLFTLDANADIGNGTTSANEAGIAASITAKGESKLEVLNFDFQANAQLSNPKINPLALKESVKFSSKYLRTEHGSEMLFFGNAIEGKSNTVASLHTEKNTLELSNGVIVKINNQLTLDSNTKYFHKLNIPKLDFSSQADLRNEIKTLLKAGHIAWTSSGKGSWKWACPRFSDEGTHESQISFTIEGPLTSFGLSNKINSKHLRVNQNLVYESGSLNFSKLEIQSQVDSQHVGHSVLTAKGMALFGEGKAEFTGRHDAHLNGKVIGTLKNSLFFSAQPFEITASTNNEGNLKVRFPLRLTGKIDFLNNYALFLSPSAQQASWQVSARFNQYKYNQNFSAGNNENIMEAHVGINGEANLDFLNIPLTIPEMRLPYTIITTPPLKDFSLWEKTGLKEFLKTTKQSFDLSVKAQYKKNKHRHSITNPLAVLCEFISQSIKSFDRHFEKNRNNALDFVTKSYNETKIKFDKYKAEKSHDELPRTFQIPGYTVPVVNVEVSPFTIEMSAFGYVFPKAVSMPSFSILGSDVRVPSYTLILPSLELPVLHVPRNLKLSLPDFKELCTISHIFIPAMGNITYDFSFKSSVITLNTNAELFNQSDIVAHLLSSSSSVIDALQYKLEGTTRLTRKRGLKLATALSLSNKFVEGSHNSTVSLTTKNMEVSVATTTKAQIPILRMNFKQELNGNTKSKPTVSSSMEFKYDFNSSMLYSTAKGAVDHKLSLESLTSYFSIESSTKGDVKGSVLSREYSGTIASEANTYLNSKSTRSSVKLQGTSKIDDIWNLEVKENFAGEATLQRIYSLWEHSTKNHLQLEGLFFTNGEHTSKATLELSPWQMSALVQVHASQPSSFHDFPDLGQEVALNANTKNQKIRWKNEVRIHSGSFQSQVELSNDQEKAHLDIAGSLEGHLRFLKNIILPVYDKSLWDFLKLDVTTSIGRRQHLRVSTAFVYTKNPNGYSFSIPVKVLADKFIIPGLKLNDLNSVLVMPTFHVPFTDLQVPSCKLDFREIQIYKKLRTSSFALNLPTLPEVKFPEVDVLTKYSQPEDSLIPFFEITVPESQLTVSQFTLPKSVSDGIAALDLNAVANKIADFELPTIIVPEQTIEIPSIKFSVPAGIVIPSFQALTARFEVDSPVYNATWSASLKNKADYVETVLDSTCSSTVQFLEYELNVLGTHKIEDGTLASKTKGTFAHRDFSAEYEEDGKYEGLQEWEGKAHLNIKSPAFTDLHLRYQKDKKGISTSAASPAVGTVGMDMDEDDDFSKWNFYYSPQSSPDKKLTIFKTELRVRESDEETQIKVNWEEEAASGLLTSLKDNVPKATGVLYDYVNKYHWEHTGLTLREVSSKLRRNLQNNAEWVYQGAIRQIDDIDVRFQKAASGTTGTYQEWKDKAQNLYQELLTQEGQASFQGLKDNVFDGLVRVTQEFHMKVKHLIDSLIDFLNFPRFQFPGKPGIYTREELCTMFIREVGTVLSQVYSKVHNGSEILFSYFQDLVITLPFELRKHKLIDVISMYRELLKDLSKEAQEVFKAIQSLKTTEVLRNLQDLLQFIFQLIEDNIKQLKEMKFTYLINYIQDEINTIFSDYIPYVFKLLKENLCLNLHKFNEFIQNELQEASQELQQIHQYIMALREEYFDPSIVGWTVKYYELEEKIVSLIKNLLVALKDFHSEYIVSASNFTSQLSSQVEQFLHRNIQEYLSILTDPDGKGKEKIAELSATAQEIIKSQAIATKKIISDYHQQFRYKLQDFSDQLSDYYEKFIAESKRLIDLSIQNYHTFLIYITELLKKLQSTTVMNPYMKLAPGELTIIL
T2 sequence (P04114 28-4563): as above

| Molecule | Susceptibility of lipid-enriched LDL to aggregate during incubation with hrSMase, vs control LDL (LDL particles) | SMase-induced conformational changes in apoB-100 (apoB-100) | Aggregation of LDL (LDL) |
| --- | --- | --- | --- |
| CCCCCCCCCCCCCCCC(=O)OC[C@@H](O)COP(=O)([O-])OCC[N+](C)(C)C [LPC 16:0, 1-Palmitoyl-2-Hydroxy-sn-Glycero-3-Phosphocoline] | less susceptible |  |  |
| CCCCCCCCCCCCC/C=C/[C@@H](O)[C@H](COP(=O)([O-])OCC[N+](C)(C)C)NC(=O)CCCCCCCCCCCCCCC [SM 18:1/16:0, N-Palmitoyl-D-erythro-sphingosylphosphorylcholine] | more susceptible | enhanced |  |
| B1 |  |  | caused aggregation |
